Results as given in paper PMC9532951, “Identification and characterization of a novel SNAT2 (SLC38A2) inhibitor reveals synergy with glucose transport inhibition in cancer cells” (Frontiers in Pharmacology, 2022).
Values joined by “and” are separate entries in the source; they are usually repeats but may differ in a detail not shown here. Equal values may be shown once.

Columns and labels:
Type in all cases: cell-based, human
[1] = system: SNAT1/2; test: FMP assay: depolarisation by amino acid substrates in amino acid depleted HCC1806 cells; settings: for FMP fluorescence reading: amino acid 1 mM final; for FMP response as substrate: 1 mM
Experimental: The FLIPR Membrane Potential Blue Explorer Kit (Molecular Devices) was used to characterise inhibitors and to optimise a high-throughput compound screen. Cells were seeded at approximately 60,000 cells/well on a 96-well plate and allowed to attach and grow overnight in a cell incubator. […] Cells were then washed once with mHBSS and incubated with 50 µl of the mHBSS-resuspended FMP assay dye and 50 µl of mHBSS (with or without inhibitors) and incubated at room temperature for 30 min. The plate was then placed in an EnSpire Multimode plate reader (PerkinElmer) and four sequential measurements of fluorescence were recorded as a baseline reference. Immediately after the baseline measurements were taken, 25 µl of 5 mM glutamine dissolved in mHBSS was injected into each well and the plate was shaken orbitally for 5 s before a series of consecutive fluorescence measurements were taken. The excitation wavelength was set to 530 nm and the emission was detected at 565 nm. […] After the assay was complete, the liquid content of the plate was carefully removed, and the cell monolayer inspected to ensure it remained intact throughout the course of the assay.

[2] = system: HPAFII cells; test: Growth assay (IncuCyte confluence), HPAFII; set-up: key to Growth (Figure 6A) / cell confluence (Figure 6F): % confluence; settings: CB-839 10uM, replicates 1-3
Experimental: (§1) Cells were seeded on 96-well flat bottom plates at approximately 3000 cells/well and incubated in growth medium (DMEM/F12 supplemented with 10% FBS, 2 mM glutamine) for 24 h. The next day, the growth medium was aspirated and exchanged with 300 μL/well of growth medium containing compounds at the indicated concentration. For live cell analysis, plates were placed in the IncuCyte system (Essen Bioscience), which was housed in a cell incubator (37°C, humidified atmosphere composed of 95% air and 5% CO2) and confluence measured at 6-h intervals or at the assay endpoint when untreated control cells reached a confluency >90%. Antibiotics (10 U/mL penicillin and 10 μg/ml streptomycin) were included in the treatment solutions.
(§2) Growth curves were generated using the Gompertz function of OriginPro software: y=ae^−e^(−k(x−xc))
(§3) Where a is the maximum confluence or upper asymptote, k is the growth rate coefficient, xc is the time point at which 50% confluence is reached (inflection point) and e is Euler’s number. Cell growth data are shown as % confluence.
(§4) Synergism between drug combinations was quantified using ZIP synergy scoring as calculated by SynergyFinder ([Yadav et al., 2015]).

[3] = system: MDA-MB-231 cells; test: Growth assay (IncuCyte confluence), MDA-MB-231; set-up: key to Growth (Figure 6A) / cell confluence (Figure 6F): % confluence; settings: MDA-MB-231; CB-839 10uM; replicates 1-3
Experimental: as §1, §2, §3, §4

[4] = system: SNAT1 and SNAT2; test: FMP assay: inhibition of glutamine-induced membrane depolarisation in amino acid depleted HCC1806 cells; settings: FMP assay, top hit compounds from the HTS, 9-point dose-response, n = 6
Experimental: The FLIPR Membrane Potential Blue Explorer Kit (Molecular Devices) was used to characterise inhibitors and to optimise a high-throughput compound screen. Cells were seeded at approximately 60,000 cells/well on a 96-well plate and allowed to attach and grow overnight in a cell incubator. […] Cells were then washed once with mHBSS and incubated with 50 µl of the mHBSS-resuspended FMP assay dye and 50 µl of mHBSS (with or without inhibitors) and incubated at room temperature for 30 min. The plate was then placed in an EnSpire Multimode plate reader (PerkinElmer) and four sequential measurements of fluorescence were recorded as a baseline reference. Immediately after the baseline measurements were taken, 25 µl of 5 mM glutamine dissolved in mHBSS was injected into each well and the plate was shaken orbitally for 5 s before a series of consecutive fluorescence measurements were taken. The excitation wavelength was set to 530 nm and the emission was detected at 565 nm. The Δ fluorescent signal reported in the figures was taken 30 s after substrate addition. After the assay was complete, the liquid content of the plate was carefully removed, and the cell monolayer inspected to ensure it remained intact throughout the course of the assay.
IC50 were calculated using equation y=ymax(1−x/x+IC50)

IC50 [4] [µM] | Structure (SMILES) | FMP fluorescence reading ([1]; t=0 s) | FMP fluorescence reading ([1]; t=15 s) | FMP fluorescence reading ([1]; t=30 s) | FMP fluorescence reading ([1]; t=45 s) | FMP fluorescence reading ([1]; t=60 s) | FMP fluorescence reading ([1]; t=75 s) | FMP fluorescence reading ([1]; t=90 s) | FMP fluorescence reading ([1]; t=105 s) | FMP fluorescence reading ([1]; t=120 s) | FMP fluorescence reading ([1]; t=135 s) | FMP fluorescence reading ([1]; t=-15 s) | FMP fluorescence reading ([1]; t=-30 s, replicates 1-3) | FMP response as substrate [1] | cell confluence (Figure 6F) [2] | cell confluence (Figure 6F) [3]
 | N=C(N)NCCC[C@H](N)C(=O)O [Arginine] | 57601 and 55451 and 44145 | 59785 and 58453 and 46579 | 60283 and 58803 and 46849 | 60859 and 58896 and 47284 | 61207 and 59368 and 47582 | 60824 and 59447 and 47575 | 61207 and 59194 and 47872 | 61703 and 59566 and 47735 | 61529 and 59552 and 47812 | 61459 and 60027 and 47987 | 57812 and 55789 and 44423 | 57675 and 55602 and 44293 |  |  | 
 | O=C(O)[C@@H]1CCCN1 [Proline] | 59025 and 53021 and 43095 | 104996 and 86952 and 88962 | 110697 and 98531 and 91551 | 113693 and 105110 and 94295 | 116376 and 109453 and 95282 | 118353 and 112938 and 95197 | 118882 and 114320 and 95021 | 119266 and 115087 and 95127 | 119471 and 115780 and 93913 | 119506 and 115226 and 93809 | 58886 and 52711 and 43194 | 59126 and 52759 and 43032 | strongest response |  | 
 | O=C(Cc1cccc(OC(F)(F)F)c1)Nc1ccc(CCCCc2nnc(NC(=O)Cc3ccccn3)s2)nn1 [CB-839] |  |  |  |  |  |  |  |  |  |  |  |  |  | 88.1 and 96.7 and 88.9 | 98.45 and 98.5 (2×)
 | NC(=O)CCC(N)C(=O)O (stereo in doubt) [D-glutamine] | 42839 and 39003 and 33523 | 50034 and 45149 and 38644 | 50270 and 45056 and 39117 | 50350 and 45753 and 39233 | 50602 and 45748 and 39437 | 50996 and 45609 and 39481 | 51179 and 45923 and 39430 | 51145 and 45682 and 40002 | 51340 and 46043 and 40162 | 51584 and 46357 and 40097 | 43005 and 38805 and 33297 | 42947 and 39128 and 33746 |  |  | 
83.5 | C#Cc1cccc(NC(=O)N2CC(S(=O)(=O)N3CCN(C(=O)OC(C)(C)C)CC3)C2)c1 [Compound 55_G] |  |  |  |  |  |  |  |  |  |  |  |  |  |  | 
114 | COC(=O)c1ccc(C(=O)N2CCc3sccc3C2c2ccccc2)s1 (centres unmarked) [Compound 57_C] |  |  |  |  |  |  |  |  |  |  |  |  |  |  | 
3.84 | CCN1CCN(Cc2nn(-c3ccc(C)c(Cl)c3)c(N)c2-c2ccccc2)CC1 [Compound 55_A] |  |  |  |  |  |  |  |  |  |  |  |  |  |  | 
 | NCC(=O)O [Glycine] | 44899 and 49024 and 38114 | 85173 and 99097 and 84032 | 91215 and 103676 and 87874 | 94947 and 105684 and 90110 | 97113 and 106636 and 90762 | 98961 and 107619 and 91458 | 100150 and 108044 and 90972 | 99878 and 107571 and 90946 | 99987 and 106851 and 90990 | 99765 and 106361 and 89148 | 44724 and 48839 and 38339 | 44368 and 48981 and 38101 | strongest response |  | 
 | C[C@H](N)C(=O)O [Alanine] | 54596 and 53457 and 39829 | 99809 and 107431 and 86655 | 104988 and 111613 and 89183 | 107389 and 114043 and 90927 | 109154 and 114952 and 91569 | 110049 and 115127 and 91618 | 110411 and 114906 and 91021 | 110237 and 114204 and 90013 | 109638 and 112786 and 88869 | 108521 and 111868 and 87878 | 54286 and 53641 and 39860 | 53991 and 53679 and 39761 | strongest response |  | 
 | N[C@@H](Cc1ccccc1)C(=O)O [Phenylalanine] | 56591 and 55422 and 43224 | 73580 and 72052 and 58378 | 74725 and 73471 and 59296 | 75492 and 73818 and 59645 | 76233 and 74445 and 59921 | 76773 and 74969 and 60608 | 77388 and 75496 and 60901 | 77493 and 75802 and 61169 | 77831 and 75902 and 61002 | 78078 and 75738 and 60891 | 56780 and 55712 and 43156 | 56746 and 55392 and 43055 | weak signal |  | 
 | CC(C)C[C@H](N)C(=O)O [Leucine] | 61522 and 51455 and 48802 | 88098 and 66521 and 74458 | 89784 and 72558 and 75976 | 91395 and 75844 and 77135 | 92447 and 78186 and 77607 | 93485 and 79454 and 77906 | 93344 and 79903 and 78344 | 93716 and 80571 and 78223 | 93656 and 80831 and 77995 | 93514 and 80690 and 77322 | 61387 and 51586 and 49166 | 61314 and 51367 and 48860 | weak signal |  | 
18.4 | Cc1sc2nc(CN3CCC(C)CC3)nc(N3CCC(C)CC3)c2c1C [Compound 56_C] |  |  |  |  |  |  |  |  |  |  |  |  |  |  | 
 | N[C@@H](CCC(=O)O)C(=O)O [Glutamate] | 60032 and 51875 and 43598 | 69207 and 54669 and 51909 | 69328 and 57256 and 51957 | 69976 and 58306 and 52382 | 70448 and 59203 and 52416 | 70747 and 59679 and 52622 | 70473 and 59687 and 53012 | 70925 and 60367 and 52735 | 71220 and 60249 and 53084 | 71259 and 60330 and 52832 | 59967 and 51788 and 43666 | 60239 and 51751 and 43455 |  |  | 
